Data published in publication PMC10974533, “Cationicity Enhancement on the Hydrophilic Face of Ctriporin Significantly Reduces Its Hemolytic Activity and Improves the Antimicrobial Activity against Antibiotic-Resistant ESKAPE Pathogens” (Toxins, 2024).
Where a SMILES comes first, the peptide text is derived from it.

How the values were obtained:
Format in all cases: cell-based
[1] = tested on: A. baumannii 19618; experiment: MIC, broth dilution, clinical isolate; conditions: CRE/MDR clinical isolate; broth dilution (CLSI), MHB, 5 × 10^5 CFU/mL, 37 °C, 16–20 h, OD630
Experimental: (§1) The standard strains, including S. aureus ATCC29213 and ATCC25923, E. faecalis ATCC29212, E. coli ATCC25922 and ATCC35218, A. baumannii ATCC19606, K. pneumoniae ATCC700603, and P. aeruginosa ATCC27853, were purchased from the China Center of Type Culture Collection (CCTCC). The clinical strains of the ESKAPE pathogens were isolated from the affiliated hospitals of Hubei University of Medicine. All of them were stored at −80 °C before use. The drug sensitivities of the clinical strains were determined by the Kirby–Bauer test.
(§2) The MICs were determined using the broth dilution method according to the guidelines of the Clinical and Laboratory Standards Institute (CLSI), as described in the previous studies. Briefly, the bacterial cells were incubated in Mueller–Hinton broth (MHB, Oxoid, Basingstoke, UK) at 37 °C and 150 rpm to the mid-growth phase and diluted to achieve a final concentration of 5 × 10^5 colony-forming units per milliliter (CFU/mL). Then, the cells were mixed with each peptide in different concentrations (1, 2, 4, 8, 16, 32, and 64 μg/mL). […] All experiments were repeated at least three times.

[2] = tested on: S. epidermidis 9092; experiment: MIC, broth dilution, clinical isolate; conditions: MRSE clinical isolate; broth dilution (CLSI), MHB, 5 × 10^5 CFU/mL, 37 °C, 16–20 h, OD630
Experimental: as §1, §2

[3] = tested on: E. faecium 898; experiment: MIC, broth dilution, clinical isolate; conditions: MDR clinical isolate; broth dilution (CLSI), MHB, 5 × 10^5 CFU/mL, 37 °C, 16–20 h, OD630
Experimental: as §1, §2

[4] = tested on: A. baumannii 19462; experiment: MIC, broth dilution, clinical isolate; conditions: CRE/MDR clinical isolate; broth dilution (CLSI), MHB, 5 × 10^5 CFU/mL, 37 °C, 16–20 h, OD630
Experimental: as §1, §2

[5] = tested on: S. aureus 891; experiment: MIC, broth dilution, clinical isolate; conditions: MRSA clinical isolate; broth dilution (CLSI), MHB, 5 × 10^5 CFU/mL, 37 °C, 16–20 h, OD630
Experimental: as §1, §2

[6] = tested on: P. aeruginosa 9014; experiment: MIC, broth dilution, clinical isolate; conditions: CRE/MDR clinical isolate; broth dilution (CLSI), MHB, 5 × 10^5 CFU/mL, 37 °C, 16–20 h, OD630
Experimental: as §1, §2

[7] = tested on: E. coli 2678; experiment: MIC, broth dilution, clinical isolate; conditions: ESBL clinical isolate; broth dilution (CLSI), MHB, 5 × 10^5 CFU/mL, 37 °C, 16–20 h, OD630
Experimental: as §1, §2

[8] = tested on: E. coli 2687; experiment: MIC, broth dilution, clinical isolate; conditions: ESBL clinical isolate; broth dilution (CLSI), MHB, 5 × 10^5 CFU/mL, 37 °C, 16–20 h, OD630
Experimental: as §1, §2

[9] = tested on: A. baumannii 19295; experiment: MIC, broth dilution, clinical isolate; conditions: CRE/MDR clinical isolate; broth dilution (CLSI), MHB, 5 × 10^5 CFU/mL, 37 °C, 16–20 h, OD630
Experimental: as §1, §2

[10] = tested on: K. pneumoniae 9126; experiment: MIC, broth dilution, clinical isolate; conditions: CRE clinical isolate; broth dilution (CLSI), MHB, 5 × 10^5 CFU/mL, 37 °C, 16–20 h, OD630
Experimental: as §1, §2

[11] = tested on: S. capitis 3255; experiment: MIC, broth dilution, clinical isolate; conditions: MRSC clinical isolate; broth dilution (CLSI), MHB, 5 × 10^5 CFU/mL, 37 °C, 16–20 h, OD630
Experimental: as §1, §2

[12] = tested on: S. aureus 9124; experiment: MIC, broth dilution, clinical isolate; conditions: MRSA clinical isolate; broth dilution (CLSI), MHB, 5 × 10^5 CFU/mL, 37 °C, 16–20 h, OD630
Experimental: as §1, §2

[13] = tested on: S. epidermidis 6943; experiment: MIC, broth dilution, clinical isolate; conditions: MRSE clinical isolate; broth dilution (CLSI), MHB, 5 × 10^5 CFU/mL, 37 °C, 16–20 h, OD630
Experimental: as §1, §2

[14] = tested on: E. coli ATCC25922; experiment: MIC, broth dilution, standard strain; conditions: broth dilution (CLSI), MHB, 5 × 10^5 CFU/mL, 37 °C, 16–20 h, OD630, repeated at least three times
Experimental: as §1, §2

[15] = tested on: S. aureus ATCC25923; experiment: MIC, broth dilution, standard strain; conditions: broth dilution (CLSI), MHB, 5 × 10^5 CFU/mL, 37 °C, 16–20 h, OD630, repeated at least three times
Experimental: as §1, §2

[16] = tested on: K. pneumoniae ATCC700603; experiment: MIC, broth dilution, standard strain; conditions: broth dilution (CLSI), MHB, 5 × 10^5 CFU/mL, 37 °C, 16–20 h, OD630, repeated at least three times
Experimental: as §1, §2

[17] = tested on: A. baumannii ATCC19606; experiment: MIC, broth dilution, standard strain; conditions: broth dilution (CLSI), MHB, 5 × 10^5 CFU/mL, 37 °C, 16–20 h, OD630, repeated at least three times
Experimental: as §1, §2

[18] = tested on: S. aureus ATCC29213; experiment: MIC, broth dilution, standard strain; conditions: broth dilution (CLSI), MHB, 5 × 10^5 CFU/mL, 37 °C, 16–20 h, OD630, repeated at least three times
Experimental: as §1, §2

[19] = tested on: E. faecium ATCC29212; experiment: MIC, broth dilution, standard strain; conditions: broth dilution (CLSI), MHB, 5 × 10^5 CFU/mL, 37 °C, 16–20 h, OD630, repeated at least three times
Experimental: as §1, §2

[20] = tested on: P. aeruginosa ATCC27853; experiment: MIC, broth dilution, standard strain; conditions: broth dilution (CLSI), MHB, 5 × 10^5 CFU/mL, 37 °C, 16–20 h, OD630, repeated at least three times
Experimental: as §1, §2

[21] = tested on: E. coli ATCC35218; experiment: MIC, broth dilution, standard strain; conditions: broth dilution (CLSI), MHB, 5 × 10^5 CFU/mL, 37 °C, 16–20 h, OD630, repeated at least three times
Experimental: as §1, §2

[22] = tested on: human red blood cells (hRBC); experiment: Hemolytic activity determination; conditions: 2% (v/v) hRBC, 37 °C, 1 h
Experimental: Figure 2 Hemolytic activities of Ctriporin and its analogs against human red blood cells (hRBC). Hemolytic activities of Ctriporin (solid circle), CM1 (open circle), CM2 (open square), CM3 (upward triangle), CM4 (downward triangle), CM5 (half solid circle), CM6 (half solid square), and CM7 (half solid triangle), were measured against 2% (v/v) human red blood cells. The peptide concentrations are 0, 2, 4, 8, 16, 32, 64, 128, 256, and 512 μg/mL. The cells treated with 1% Triton X-100 were treated as 100% hemolysis. All experiments were repeated three times, and the data shown are the average ± standard error.
The hemolytic activities of the peptides were determined against human red blood cells (hRBCs). As described, sodium citrate-anticoagulated hRBCs were washed three times with 0.9% sodium chloride and diluted to a final concentration of 4% (v/v). Then, an equal volume of hRBC solutions was mixed with an equal volume of each peptide in a series of concentrations (0, 2, 4, 8, 16, 32, 64, 128, 256, and 512 μg/mL). After co-incubation at 37 °C for 1 h, the degree of hemolysis of the peptides was determined by detecting the release of hemoglobin from the damaged hRBCs by measuring the optical density at 540 nm (OD540). hRBCs in 0.9% sodium chloride and 1% Triton X-100 were considered 0% and 100% hemolysis, respectively. The results shown are the average ± standard error of data derived from three independent experiments. The percent hemolysis was calculated according to the following equation [53, 54]:Hemolysis (%) = 100 × (Asample − Ablank)/(Apositive − Ablank)

[23] = tested on: standard ESKAPE strains; conditions: broth dilution (CLSI), MHB, 37 °C, 16–20 h; range over all standard strains
Experimental: The ESKAPE pathogens represent the main threat to public health concerning antimicrobial resistance. Therefore, we first evaluated the antimicrobial activities of Ctriporin and its analogs against the standard ESKAPE strains. The minimum inhibitory concentration (MIC) was chosen as the index for the evaluation of each peptide’s activity. […] Note that the MICs of CM4 and CM7 are 4–32 and 8–32 μg/mL, respectively, indicating the existence of significant bacterial species deviations for the antimicrobial activity of these peptides. In addition, the replacement of specific residues, especially Pro^7, may harm the antimicrobial activities of the peptide.
as §1, §2

[24] = tested on: clinical isolates of CRE and multidrug-resistant (MDR) A. baumannii; conditions: broth dilution (CLSI), MHB
Experimental: To further evaluate the antimicrobial potential of CM5 and CM6, the MICs of these two peptides, as well as the parent peptide Ctriporin, were determined against clinical antibiotic-resistant isolates of ESKAPE strains. […] Note that CRE and MDR A. baumannii are listed at the top of the pathogens threatening public health. Compared with the parent peptide Ctriporin, eight to sixteen times improvement in terms of antimicrobial activity was obtained through our peptide design strategy.
as §2

CC[C@H](C)[C@H](NC(=O)[C@H](C)NC(=O)[C@H](CCCCN)NC(=O)[C@@H]1CCCN1C(=O)[C@@H](NC(=O)[C@H](CC(C)C)NC(=O)[C@H](CCCCN)NC(=O)[C@H](Cc1c[nH]c2ccccc12)NC(=O)[C@H](CC(C)C)NC(=O)[C@@H](N)Cc1ccccc1)[C@@H](C)CC)C(=O)N[C@@H](CCCCN)C(=O)N[C@@H](CCCCN)C(=O)N[C@H](C(=O)N[C@@H](CCCCN)C(=O)N[C@@H](CCCCN)C(=O)N[C@@H](CC(C)C)C(=O)N[C@H](C(=O)N[C@@H](CCCCN)C(=O)N[C@@H](CCCCN)C(N)=O)[C@@H](C)CC)C(C)C [CM6] (H-FLWKLIPKAIKKVKKLIKK-NH2) gave an MICs [1] of 2 µg/mL, an MICs [2] of 4 µg/mL and an MICs [3] of 4 µg/mL. For the same compound, the MICs [4] was 2 µg/mL, the MICs [5] was 8 µg/mL and the MICs [6] was 8 µg/mL. It also gave an MICs [7] of 8 µg/mL, an MICs [8] of 8 µg/mL and an MICs [9] of 2 µg/mL. It also gave an MICs [10] of 16 µg/mL, an MICs [11] of 2 µg/mL and an MICs [12] of 8 µg/mL. For the same compound, the MICs [13] was 4 µg/mL, the MICs [14] was 8 µg/mL and the MICs [15] was 8 µg/mL. The MICs [16] was 8 µg/mL, the MICs [17] was 4 µg/mL and the MICs [18] was 8 µg/mL. It also gave an MICs [19] of 8 µg/mL, an MICs [20] of 4 µg/mL and an MICs [21] of 8 µg/mL. For the same compound, the “curve of hemolysis% vs. peptide concentration (Figure 2)” value ([22]; 0–512 μg/mL peptide, compared in words) was “decreased dramatically compared with Ctriporin”, the “Hemolysis% at 256 μg/mL” value ([22]; 256 μg/mL peptide, OD540, 1% Triton X-100 = 100%, average ± standard error of three independent experiments) was 8.1 ± 1.9% and the “MICs against the ESKAPE pathogens (range over the standard strains of Table 2)” value [23] was 4 to 8 µg/mL. For the same compound, the “MIC values against clinical isolates of CRE and MDR A. baumannii” value [24] was 2 µg/mL.
